US20200261440A1, “ZINC IONOPHORES AND USES THEREOF” (THE UNIVERSITY OF QUEENSLAND, priority 2017, published 2020)
Marks after values point to notes of the source that are not given here.

Key:
[1] = system: Methicillin-resistant Staphylococcus aureus (MRSA) strain USA300; experiment: MIC by broth microdilution (CLSI)
[2] = system: P. aeruginosa strain 253-43-C; experiment: MIC by broth microdilution (CLSI); assay type: cell-based, Pseudomonas aeruginosa
Protocol: (§1) They were obtained from Jan Bell, Australian Centre of Microbial Resistance Ecology (ACARE), University of Adelaide, Australia.
(§2) (2017)]. […] MIC assays were carried out in biological triplicates.

[3] = system: Klebsiella pneumoniae strain MS6771; experiment: MIC by broth microdilution (CLSI); assay type: cell-based
[4] = system: MCR-1 E. coli strain MS8345; experiment: MIC by broth microdilution (CLSI); assay type: cell-based, Escherichia coli; conditions: for antibiotic sensitivity of resistant strain: MCR1-positive E. coli MS8345; for MIC: MCR-1 E. coli
Protocol: (§3) J. Path. Bact. […] Proc. Soc.
J Infect Dis. 1995 171:890-6). E. coli strain MS8345 is a MCR-1 resistant clinical isolate supplied by Prof. D. L. Paterson, University of Queensland Centre for Clinical Research.
as §2

[5] = system: Vancomycin-resistant Enterococci (VRE) clinical isolate RBWH1; experiment: MIC by broth microdilution (CLSI); assay type: cell-based, Enterococcus
Protocol: as §3
(§4) MIC assays were carried out in biological triplicates.
(§5) M100 Performance Standards for Antimicrobial Susceptibility Testing, 27th Edition.

[6] = system: GAS strain HKU16 (Streptococcus pyogenes strain HKU16); experiment: microbe, parasite or virus in culture; assay type: cell-based
Protocol: as §3, §4, §5

A. baumannii strain 42-A = experiment: MIC by broth microdilution (CLSI); assay type: cell-based, Acinetobacter baumannii; conditions: Untreated
Protocol: as §1, §2

colistin was tested, and the MIC ([1]; MRSA USA300, CQ: 1 μM, Zinc: 32 μM) was 2 µg/mL, the MIC ([1]; MRSA USA300, PBT2: 2 μM, Zinc: 50 μM) was 2 µg/mL and the antibiotic resensitization ([1]; MRSA USA 300, RA-HQ-12+zinc(II) ions (ZnSO4)) was “resensitize”. The “antibiotic sensitivity of resistant strain” value (from here on “antibiotic sensitivity”) ([1]; MRSA USA300, addition of sub-inhibitory PBT2+zinc(II) ions) was “became sensitive”, the MIC ([1]; MRSA, RA-HQ-12: 3.5 μM, Zn: […], oxacillin with 2% NaCl) was 8 µg/mL and the MIC ([1]; MRSA, RA-HQ-12: 3.5 μM, oxacillin with 2% NaCl) was 64 µg/mL. The MIC ([2]; PBT2) was 1 µg/mL, the MIC ([2]; Untreated) was 8 µg/mL and the MIC ([3]; K. pneumoniae, RA-HQ-12: 0 μM, Zn: 0 μM) was 64 µg/mL. For the same substance, the MIC ([3]; K. pneumoniae, RA-HQ-12: 16 μM) was 32 µg/mL, the MIC ([3]; K. pneumoniae, RA-HQ-12: 16 μM, Zn: 64 μM) was 4^# μg/mL and the MIC ([3]; K. pneumoniae, Zn: 64 μM) was 64 µg/mL. For the same substance, the antibiotic resensitization ([3]; Klebsiella pneumoniae MS6771, RA-HQ-12+zinc(II) ions (ZnSO4)) was “resensitize”, the “antibiotic sensitivity” value ([3]; Klebsiella pneumoniae MS6771, addition of sub-inhibitory PBT2+zinc(II) ions) was “became sensitive” and the “antibiotic sensitivity” value ([3]; Klebsiella pneumoniae MS6771, combination with PBT2, no zinc) was “resulted in sensitivity”. For the same substance, the MIC ([3]; Klebsiella pneumoniae, CQ: 0 μM, Zinc: 0 μM) was 64 µg/mL, the MIC ([3]; Klebsiella pneumoniae, CQ: 64 μM) was 0.5 µg/mL and the MIC ([3]; Klebsiella pneumoniae, CQ: 64 μM, Zinc: 256 μM) was 0.5 µg/mL. The MIC ([3]; Klebsiella pneumoniae, PBT2: 0 μM, Zinc: 0 μM) was 32 to 64 µg/mL, the MIC ([3]; Klebsiella pneumoniae, Zinc: 256 μM (CQ panel)) was 32 to 64 µg/mL and the MIC ([3]; Klebsiella pneumoniae, Zinc: 256 μM (PBT2 panel)) was 32 to 64 µg/mL. The “antibiotic sensitivity” value ([4]; addition of sub-inhibitory PBT2+zinc(II) ions) was “became sensitive”, the “antibiotic sensitivity” value ([4]; combination with PBT2, no zinc) was “resulted in sensitivity” and the MIC ([4]; CQ: 0 μM, Zinc: 0 μM) was 8 µg/mL. For the same substance, the MIC ([4]; CQ: 5 μM) was 2 µg/mL, the MIC ([4]; CQ: 5 μM, Zinc: 25 μM) was 0.5 to 1 µg/mL and the MIC ([4]; PBT2: 0 μM, Zinc: 0 μM) was 8 µg/mL. For the same substance, the MIC ([4]; PBT2: 7 μM) was 1 µg/mL, the MIC ([4]; PBT2: 7 μM, Zinc: 200 μM) was 0.25 µg/mL and the MIC ([4]; Zinc: 25 μM) was 8 µg/mL. The MIC ([4]; Zinc: 200 μM) was 8 µg/mL, the MIC ([5]; VRE RBWH1, CQ: 2.5 μM, Zinc: 32 μM) was 0.5 to 1 µg/mL and the MIC ([5]; VRE RBWH1, PBT2: 1.75 μM, Zinc: […]) was 0.5 µg/mL. The antibiotic resensitization ([5]; VRE RBWH1, RA-HQ-12+zinc(II) ions (ZnSO4)) was “resensitize”, the “antibiotic sensitivity” value ([5]; VRE RBWH1, addition of sub-inhibitory PBT2+zinc(II) ions) was “became sensitive” and the MIC ([5]; VRE, RA-HQ-12: 3.5 μM) was 32 µg/mL. For the same substance, the MIC ([5]; VRE, RA-HQ-12: 3.5 μM, Zn: […]) was 2-4^# μg/mL, the antibiotic resensitization ([6]; GAS HKU16, RA-HQ-12+zinc(II) ions (ZnSO4)) was “resensitize” and the “antibiotic sensitivity” value ([6]; GAS HKU16, addition of sub-inhibitory PBT2+zinc(II) ions) was “became sensitive”. For the same substance, the MIC ([6]; GAS, RA-HQ-12: 3.5 μM, Zn: […]) was 2-4^# μg/mL, the MIC ([6]; Streptococcus pyogenes HKU16, CQ: 6 μM) was 64 µg/mL and the MIC ([6]; Streptococcus pyogenes HKU16, CQ: 6 μM, Zinc: 80 μM) was 1 µg/mL. The MIC ([6]; Streptococcus pyogenes HKU16, PBT2: 4.75 μM) was 32 µg/mL, the MIC ([6]; Streptococcus pyogenes HKU16, PBT2: 4.75 μM, Zinc: […]) was 0.5-1^ μg/mL and the MIC (A. baumannii strain 42-A) was greater than 64 µg/mL.
